Assay results taken from patent US20160002174A1, “CXCR4 Antagonists for the Treatment of Medical Disorders” (Emory University, priority 2005, published 2016).
Like-named read-outs stand apart in the source and are kept apart here. Bridge positions count the residues as written; N and C are the ends. Square brackets hold non-standard residues; d marks the D form. Peptide text beside a SMILES is read from it. 2Nal = N[C@@H](Cc1ccc2ccccc2c1)C(=O)O; Cit = NC(=O)NCCC[C@H](N)C(=O)O

What was measured:
CXCR4 = CXCR4 (Homo sapiens, UniProt P61073); test: Competition assays: test compounds binding to CXCR4 compared to SDF-1 (Table 2)
SHIV = SHIV infection, p27 antigen capture; format: cell-based; settings: 0.1, 1, 10 or 100 nM drug prior to infection; 2 to 5 days
Method: The effect of the test compounds on HIV infection in model cells was analyzed by p27 antigen capture using SHIV infected cells. Cells were incubated with 0, 0.1, 1, 10 or 100 nM drug prior to infection with SHIV. Viral titer was measured after infection by analyzing levels of p27 antigen. […] The inhibition was measurable at 2 days, and continued to 5 day incubations.

[1] = Half life of the compounds in mice; format: in vivo; settings: for half-life: mouse, in vivo, read-out: t½ (min) in mice
Method: A pharmacokinetic study of a novel anti-HIF-1α small molecule was performed. A stably integrated hypoxia-reporter system of glioma cells transfected with the hypoxia-reporting plasmid (described above) was utilized. A natural product-like small molecule library of 10,000 compounds was screened and the “best hit” was identified. HPLC methodology was developed for quantitatively detecting KCN-1 in plasma and other biological samples. For the pharmacokinetic study, KCN-1 (100 mg/kg) was dissolved in DMSO and administered intravenously to mice. Plasma samples were collected at given time Points (0.25, 0.5, 1, 2, 4 and 8 h) and KCN-1 levels were quantified by HPLC. The HPLC system consisted of a Varian Prostar gradient pump, a Prostar autosampler and a Prostar photo diode array detector. The column was a Luna 5μ C18 column (4.6 mm×250 mm, Phenomenex). The retention time of KCN1 and the internal standard were 8.7 and 17.7 min, respectively (FIG. 13). The in vivo stability of WZZL811S and WZ40 were measured after systemic administration of compounds over two hours (FIG. 17).
The half life of the compounds in mice where determined are also shown.

Erk1/2 phosphorylation = test: SDF-1-stimulated Erk1/2 phosphorylation; format: cell-based, human; settings: data not shown
From the text: (§1) CXCR4/SDF-1 interaction activates PI3K/Akt and Ras/Raf/MEK/Erk pathways in a Gαi protein (PTX-sensitive)-dependent manner.

MT-4 cells = settings: cited from earlier work
phosphorylation of Akt = test: SDF-1-stimulated phosphorylation of Akt (western blot); format: cell-based, human
From the text: FIG. 2 is an image of a western blot showing phosphorylation of Akt.
FIG. 10 is a graph and representative blot of matrigel invasion and Akt phosphorylation in cells.
as §1

CXCR4 protein levels = CXCR4 protein levels in treated cells; format: cell-based, human
From the text: as §1

HIV = settings: MT-4 cells; read-out: concentration required for 50% protection of HIV-induced cytopathogenicity; cited from earlier work
[2] = test system: human umbilical vein endothelial cells (HUVECs); test: Endothelial capillary tube formation assay; format: cell-based; settings: 100 nM, SDF-1 100 ng/ml, 18 hours
Method: The anti-angiogenic effect of test compounds was measured by analyzing endothelial cell growth and tube formation. The angiogenic effect of SDF-1 (100 ng/ml) on capillary formation by human umbilical vein endothelial cells (HUVECs) was examined in vitro using Matrigel-coated 24-well plates precoated with Matrigel and incubated for 18 hours. The angiogenic effect of SDF-1 was inhibited by either 100 nM TN14003 (peptide-based CXCR4 antagonist) or WZZL811S treatment (FIG. 14a, graph FIG. 14b).

metastatic 686LN cells = test: Head & Neck cancer metastasis model, 686LN cells injected through the tail vein, FDG-PET; format: in vivo, mice; settings: 20 mg/mouse/twice weekly, thirty days
Method: The metastatic 686LN cells were injected intravenously through the tail vein to generate experimental animal models for Head & Neck cancer metastasis, modulated via CXCR4. […] These 3-D projection images show lung metastases well (bone mets and liver mets were apparent in axial section images of mice in control groups, data not shown).

[3] = test system: CXCR4/SDF-1 mediated invasion of MDA-MB-231; test: Matrigel invasion assay, CXCR4/SDF-1-mediated invasion; format: cell-based, human; settings: MDA-MB-231, 2 nM
Method: FIG. 10 is a graph and representative blot of matrigel invasion and Akt phosphorylation in cells. A: Inhibition of CXCR4/SDF-1 mediated invasion of MDA-MB-231 in vitro by WZZL811S. CXCR4/SDF-1 mediated invasion of MDA-MB-231 was blocked either by 2 nM of TN14003 or WZZL811S. B: Incubating MDA-MB-231 cells with 100 ng/ml of SDF-1 for 30 min stimulated phosphorylation of Akt that blocked by WZZL811S in a dose-dependent manner
Lowering CXCR4 mRNA levels by siRNAs inhibited CXCR4/SDF-1-mediated invasion as measured by a matrigel invasion assay. The CXCR4 ligand, SDF-1 (400 ng/ml) was added to the lower chamber to attract CXCR4-positive breast cancer cells to migrate through the matrigel. The invasion of MDA-MB-231 cells transfected with siRNA1 decreased to 39±4% of the control cells, 51±8% with siRNA2, and only 16±6% with both siRNA1+2 (FIG. 3A).
WZZL811S was tested in a matrigel invasion assay to determine whether it can inhibit CXCR4/SDF-1-mediated invasion.

[4] = competition with SDF-1 for binding to CXCR4, read-out: IC50 (nM) vs SDF-1

Chain of CXCR4 (P61073 whole entry): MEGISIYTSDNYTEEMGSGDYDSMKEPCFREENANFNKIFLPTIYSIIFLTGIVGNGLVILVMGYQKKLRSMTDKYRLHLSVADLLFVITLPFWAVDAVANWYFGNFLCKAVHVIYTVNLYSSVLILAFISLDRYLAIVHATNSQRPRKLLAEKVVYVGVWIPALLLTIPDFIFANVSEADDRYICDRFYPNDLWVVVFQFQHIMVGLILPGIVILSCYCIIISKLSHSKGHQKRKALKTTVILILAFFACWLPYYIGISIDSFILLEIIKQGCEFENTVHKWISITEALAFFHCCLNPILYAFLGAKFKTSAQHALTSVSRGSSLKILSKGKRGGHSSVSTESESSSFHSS

Row | Compound | IC50 (CXCR4; [4]) [nM] | further results
1 | O=[N+]([O-])c1ccc(NCc2ccc(CNc3ccc([N+](=O)[O-])cc3)cc2)cc1 [MSX-178] |  | IC50 (CXCR4): > 1000 nM
2 | CN(C)Cc1ccc(CN(C)C)cc1 [MSX-141] | > 1000 | 
3 | OCc1ccc(CNc2ncccn2)cc1 [WZ41] |  | inhibition of SHIV infection (p27 antigen) (SHIV): inhibited SHIV infection at all concentrations tested
4 | c1ccc(NCc2c3ccccc3c(CNc3ccccc3)c3ccccc23)cc1 [MSX-174] | > 100 | 
5 | c1cncc(CNCc2ccc(CNCc3cccnc3)cc2)c1 [MSX-160] | > 1000 | 
6 | Clc1cccc(NCc2ccc(CNc3ncccn3)cc2)n1 [MSX-221] | 1 | 
7 | Clc1nc(Cl)nc(NCc2ccc(CNc3nc(Cl)nc(Cl)n3)cc2)n1 [MSX-190] |  | half-life [1]: < 5 min
8 | COc1ccc(NCc2ccc(CNc3ccc(OC)cc3)cc2)cc1 [MSX-125] | > 10 | 
9 | c1cc(CNCc2ccc(CNCc3ccncc3)cc2)ccn1 [MSX-159s] | > 1000 | 
10 | c1cnc(NCc2ccc(CNc3ncccn3)cc2)nc1 [WZ40] |  | inhibition of SHIV infection (p27 antigen) (SHIV): inhibited SHIV infection at all concentrations tested
11 | COc1cccc(NC(=O)c2ccc(C(=O)Nc3cccc(OC)c3)cc2)c1 [MSX-137] | > 1000 | 
12 | Fc1ccc(NCc2ccc(CNc3ccc(F)cc3)cc2)cc1 [MSX-142] | > 1000 | 
13 | O=C(Nc1ccccc1)c1cc(CNc2ccccc2)cc(CNc2ccccc2)c1 [MSX-167] | > 100 | 
14 | Fc1ccc(NCc2ccc(CNc3ccc(F)cn3)cc2)nc1 [MSX-185] | < 100 | 
15 | N=C(N)NCc1ccc(CNC(=N)N)cc1 [WZ5S] |  | melting point: 278 to 281 °C (dec.)
16 | FCc1ccc(CNc2ncccn2)cc1 [MSX-207] | 1 | half-life [1]: 11 min
17 | Fc1nccc(NCc2ccc(CNc3ccnc(F)n3)cc2)n1 [MSX-193] | 1 | half-life [1]: 30 min
18 | O=C(Nc1ccccc1)c1cc(C(=O)Nc2ccccc2)cc(C(=O)Nc2ccccc2)c1 [WZ20] |  | melting point: 318 to 320 °C
19 | Fc1cnc(NCc2ccc(CNc3ncc(F)c(Cl)n3)cc2)nc1Cl [MSX-192] | 1 | 
20 | c1ccc(-c2nc(-c3ccc(-c4nc(-c5ccccc5)c(-c5ccccc5)[nH]4)cc3)[nH]c2-c2ccccc2)cc1 [MSX-130] | > 1000 | 
21 | Oc1cc(CN2CCOCC2)c(O)cc1CN1CCOCC1 [MSX-127] | > 1000 | 
22 | Cc1c(C)c(CNc2ccccc2)c(C)c(C)c1CNc1ccccc1 [MSX-172] |  | half-life [1]: < 5 min
23 | Fc1ccc(NCc2ccc(CNc3ncccn3)cc2)nc1 [MSX-197] | 1 | half-life [1]: 16.5 min
24 | N#Cc1ccc(NCc2ccc(CNc3ccc(C#N)cc3)cc2)cc1 [MSX-177] | > 1000 | 
25 | [O-][n+]1cccnc1NCc1ccc(CNc2nccc[n+]2[O-])cc1 [MSX-189] | > 1000 | 

Row | Compound | IC50 (CXCR4; [4]) [nM] | further results
26 | c1ccc(NCCc2ccc(CCNc3ccccc3)cc2)cc1 [MSX-170] | > 100 | 
27 | c1ccc(NCc2ccc(CNc3ncccn3)cc2)nc1 [MSX-198] | < 100 | 
28 | c1ccc(NCCNCc2ccc(CNCCNc3ccccc3)cc2)cc1 [WZ8] |  | melting point: 42 to 43 °C
29 | OCc1ccc(CNc2ccc(F)cn2)cc1 [MSX-186] | > 1000 | 
30 | c1ccc(NCCNCc2ccc(CNCCNc3ccccc3)cc2)cc1 [MSX-158] | > 1000 | 
31 | Fc1cccc(NCc2ccc(CNc3ncccn3)cc2)n1 [MSX-222] |  | half-life [1]: 15 min
32 | c1cc(CNC2=NCCN2)ccc1CNC1=NCCN1 [MSX-133] | > 1000 | 
33 | O=[N+]([O-])c1ccccc1NCc1ccc(CO)cc1 [MSX-202] | 1 | half-life [1]: < 5 min
34 | c1ccc(NCc2cc(CNc3ccccc3)cc(CNc3ccccc3)c2)cc1 [MSX-166] | > 1000 | 
35 | CN(C)CCNCc1ccc(CNCCN(C)C)cc1 [MSX-156s] | > 1000 | 
36 | COc1nc(NCc2ccc(CNc3ncc(F)c(OC)n3)cc2)ncc1F [MSX-201] | 1 | 
37 | Oc1ccc(NCc2ccc(CNc3ccc(O)cc3)cc2)cc1 [MSX-179] | > 1000 | 
38 | TN14003 |  | concentration attenuating Erk1/2 phosphorylation (Erk1/2 phosphorylation): sub-nano molar; concentration leading to 50% toxicity (MT-4 cells): 410 µM; concentration blocking Akt activation (phosphorylation of Akt; 100 ng/ml SDF-1 for 30 minutes): sub-nano molar; blocking of SDF-1-stimulated Akt phosphorylation (dose-dependent) (phosphorylation of Akt; MDA-MB-231 cells, 100 ng/ml SDF-1 for 30 min): blocked; effect on CXCR4 protein levels (CXCR4 protein levels): did not affect; EC50 (HIV): 0.6 nM; inhibition of the angiogenic effect of SDF-1 (tube formation) [2]: inhibited; metastasis of 686LN cells to organs (metastatic 686LN cells): failed to metastasize to any organs; blocking of SDF-1-induced matrigel invasion [3]: blocked
39 | c1ccc(NCc2ccc(CNc3ccccc3)cc2)cc1 [WZ13] |  | melting point: 126 to 127 °C
40 | c1ccc(NC[C@H]2CC[C@@H](CNc3ccccc3)CC2)cc1 [MSX-171] | > 1000 | 
41 | FC(F)(F)c1cccc(NCc2ccc(CNc3cccc(C(F)(F)F)c3)cc2)c1 [MSX-138] | > 1000 | 
42 | c1ccc(CNCc2ccc(CNCc3ccccn3)cc2)nc1 [MSX-161s] | > 1000 | 
43 | Cc1cc(CN)c(C)cc1CN [MSX-126] | > 1000 | 
44 | Fc1cccc(NCc2ccc(CNc3cccc(F)c3)cc2)c1 [MSX-184] | > 100 | 
45 | O=[N+]([O-])c1cccc(NCc2ccc(CNc3cccc([N+](=O)[O-])c3)cc2)c1 [MSX-203] |  | t½ (min) in mice [1]: infinite; IC50 (CXCR4): 1 nM
46 | CN(Cc1ccc(CN(C)c2ccccc2)cc1)c1ccccc1 [MSX-164] | > 100 | 
47 | c1ccc(OCc2ccc(COc3ccccn3)cc2)nc1 [MSX-213] | > 1000 | 
48 | N=C(N)NCCC[C@H](NC(=O)[C@@H]1CSSC[C@H](NC(=O)[C@H](Cc2ccc3ccccc3c2)NC(=O)[C@H](CCCNC(=N)N)NC(=O)[C@@H](N)CCCNC(=N)N)C(=O)N[C@@H](Cc2ccc(O)cc2)C(=O)N[C@@H](CCCNC(N)=O)C(=O)N[C@@H](CCCCN)C(=O)N[C@H](CCCCN)C(=O)N2CCC[C@H]2C(=O)N[C@@H](Cc2ccc(O)cc2)C(=O)N[C@@H](CCCNC(=N)N)C(=O)N[C@@H](CCCNC(N)=O)C(=O)N1)C(N)=O [TN-14003, reference compound] (H-RR[2Nal]CY[Cit]K[dK]PYR[Cit]CR-NH2; disulfide 4-13 (inferred); N-terminus assumed) | < 1 | 
49 | c1ccc(NCc2ccccc2CNc2ccccc2)cc1 [MSX-176] | > 100 | 
